Assay results as given in patent publication US7422886B2, “Method for determining modulation of P110Δ activity” (Ludwig Institute for Cancer Research, priority 1996, dated 2008).

Assays:
[1] = target: p110δ/p85α (Homo sapiens, UniProt O00329, S675R); assay: Lipid kinase assay of drug effects on p110δ/p85α; assay type: biochemical; conditions: PtdIns substrate, 40 μM ATP, 10 min at 25° C., 1% DMSO; read-out: IC50, inhibition of lipid kinase activity
Description: (§1) Lipid kinase activity was performed essentially as described by Whitman et al. (1985). Lipid kinase assay buffer was 20 mM Tris HCl pH 7.4, 100 mM NaCl and 0.5 mM EGTA. Lipids were purchased from Sigma. The final concentration of ATP and Mg^2+ in the assay were routinely 0.5 and 3.5 mM, respectively, while lipids were used at 0.2-0.4 mM concentration. Unless otherwise indicated, kinase reaction was for 10 min at 37° C. The solvent for TLC separation of reaction products was propan-1-ol/2 M acetic acid/5 M H3PO4 (65:35:1). Assays of drug effects on the kinase were performed using PtdIns as substrate in the presence of 40 μM ATP (final) for 10 min at 25° C.; all tubes contained 1% DMSO. Activity was quantified by phosphorimager (Molecular Dynamics) analysis of TLC-separated lipid products.

[2] = target: p110α/p85α (Bos taurus, UniProt P32871); assay: Lipid kinase assay of drug effects on p110α/p85α; assay type: biochemical
Description: as §1

Sequence of p110δ/p85α (O00329 whole entry S675R): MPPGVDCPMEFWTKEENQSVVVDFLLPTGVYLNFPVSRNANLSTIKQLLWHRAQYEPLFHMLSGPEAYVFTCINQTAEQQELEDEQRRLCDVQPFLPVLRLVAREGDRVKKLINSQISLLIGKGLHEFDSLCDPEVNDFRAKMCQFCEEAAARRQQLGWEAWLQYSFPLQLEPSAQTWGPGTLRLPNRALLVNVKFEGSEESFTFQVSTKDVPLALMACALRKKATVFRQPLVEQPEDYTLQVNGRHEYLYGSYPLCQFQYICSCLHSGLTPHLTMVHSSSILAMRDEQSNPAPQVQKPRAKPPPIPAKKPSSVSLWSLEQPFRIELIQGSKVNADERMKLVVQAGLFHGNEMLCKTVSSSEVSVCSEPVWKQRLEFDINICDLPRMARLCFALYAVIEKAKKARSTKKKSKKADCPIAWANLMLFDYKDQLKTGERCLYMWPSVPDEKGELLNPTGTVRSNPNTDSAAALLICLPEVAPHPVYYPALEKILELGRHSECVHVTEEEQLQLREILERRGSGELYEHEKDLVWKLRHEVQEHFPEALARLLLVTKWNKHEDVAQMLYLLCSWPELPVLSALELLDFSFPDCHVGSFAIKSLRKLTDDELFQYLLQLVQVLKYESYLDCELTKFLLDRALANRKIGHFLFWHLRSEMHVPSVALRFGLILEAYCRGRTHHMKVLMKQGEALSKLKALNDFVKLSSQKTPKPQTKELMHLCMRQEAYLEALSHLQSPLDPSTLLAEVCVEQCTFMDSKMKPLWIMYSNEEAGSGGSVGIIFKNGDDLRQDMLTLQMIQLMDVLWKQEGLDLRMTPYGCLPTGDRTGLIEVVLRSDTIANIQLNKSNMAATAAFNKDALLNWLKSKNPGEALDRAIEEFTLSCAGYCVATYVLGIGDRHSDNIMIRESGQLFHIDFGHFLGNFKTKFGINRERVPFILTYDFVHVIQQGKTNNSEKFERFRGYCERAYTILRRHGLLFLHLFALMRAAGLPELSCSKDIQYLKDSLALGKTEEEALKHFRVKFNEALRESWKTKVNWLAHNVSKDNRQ
Sequence of p110δ/p85α (P27986 whole entry partner): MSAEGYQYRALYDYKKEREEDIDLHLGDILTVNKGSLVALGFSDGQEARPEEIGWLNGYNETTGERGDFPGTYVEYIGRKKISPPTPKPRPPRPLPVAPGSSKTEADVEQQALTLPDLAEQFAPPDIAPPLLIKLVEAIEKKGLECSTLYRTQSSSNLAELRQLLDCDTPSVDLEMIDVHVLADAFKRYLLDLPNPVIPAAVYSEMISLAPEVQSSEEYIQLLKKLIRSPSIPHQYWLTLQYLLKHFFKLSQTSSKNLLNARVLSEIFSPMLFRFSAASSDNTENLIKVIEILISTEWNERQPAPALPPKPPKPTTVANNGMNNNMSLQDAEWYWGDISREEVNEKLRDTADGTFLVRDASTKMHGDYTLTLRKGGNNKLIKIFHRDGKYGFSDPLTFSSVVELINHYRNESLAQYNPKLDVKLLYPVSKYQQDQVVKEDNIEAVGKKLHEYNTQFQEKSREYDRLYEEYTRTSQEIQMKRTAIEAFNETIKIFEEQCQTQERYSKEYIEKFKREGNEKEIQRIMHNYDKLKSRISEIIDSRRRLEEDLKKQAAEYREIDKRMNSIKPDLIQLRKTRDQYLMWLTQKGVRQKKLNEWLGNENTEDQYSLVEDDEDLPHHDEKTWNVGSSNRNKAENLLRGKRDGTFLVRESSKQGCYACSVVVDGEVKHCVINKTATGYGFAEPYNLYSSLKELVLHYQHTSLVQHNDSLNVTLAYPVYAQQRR
Sequence of p110α/p85α (P32871 whole entry): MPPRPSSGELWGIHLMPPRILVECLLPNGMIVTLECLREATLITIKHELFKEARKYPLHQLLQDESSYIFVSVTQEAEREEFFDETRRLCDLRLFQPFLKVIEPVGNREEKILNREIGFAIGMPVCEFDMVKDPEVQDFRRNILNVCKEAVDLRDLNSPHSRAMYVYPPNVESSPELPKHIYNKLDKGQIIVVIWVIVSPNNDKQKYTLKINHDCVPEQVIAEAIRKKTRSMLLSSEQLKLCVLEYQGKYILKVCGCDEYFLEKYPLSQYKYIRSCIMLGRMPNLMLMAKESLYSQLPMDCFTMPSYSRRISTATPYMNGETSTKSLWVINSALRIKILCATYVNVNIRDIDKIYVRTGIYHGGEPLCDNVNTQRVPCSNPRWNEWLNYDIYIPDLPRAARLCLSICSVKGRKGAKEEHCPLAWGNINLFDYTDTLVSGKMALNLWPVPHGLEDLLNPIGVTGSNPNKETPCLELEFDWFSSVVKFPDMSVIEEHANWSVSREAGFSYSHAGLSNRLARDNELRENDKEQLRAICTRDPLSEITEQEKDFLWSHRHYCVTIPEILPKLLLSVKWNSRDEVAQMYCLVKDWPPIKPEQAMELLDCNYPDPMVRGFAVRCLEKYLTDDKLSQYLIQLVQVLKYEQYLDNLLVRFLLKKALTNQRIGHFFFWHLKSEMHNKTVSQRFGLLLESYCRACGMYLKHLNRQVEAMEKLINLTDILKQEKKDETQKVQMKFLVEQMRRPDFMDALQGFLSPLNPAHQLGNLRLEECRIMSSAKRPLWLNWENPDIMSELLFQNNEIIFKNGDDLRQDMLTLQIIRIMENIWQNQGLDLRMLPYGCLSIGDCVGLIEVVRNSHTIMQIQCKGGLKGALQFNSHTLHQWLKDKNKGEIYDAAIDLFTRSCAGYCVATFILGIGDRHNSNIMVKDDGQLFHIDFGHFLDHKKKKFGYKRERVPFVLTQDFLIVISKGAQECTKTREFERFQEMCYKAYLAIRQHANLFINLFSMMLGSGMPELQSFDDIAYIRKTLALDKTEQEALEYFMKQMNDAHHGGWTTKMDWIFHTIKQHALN

| IC50 [1] [nM] | Structure (SMILES) | IC50 [2] [nM] |
| --- | --- | --- |
| 500 | O=c1cc(N2CCOCC2)oc2c(-c3ccccc3)cccc12 [LY294002] |  |
|  | COC[C@H]1OC(=O)c2coc3c2[C@@]1(C)C1=C(C3=O)[C@@H]2CCC(=O)[C@@]2(C)C[C@H]1OC(C)=O [wortmannin] | 5 |
